Read-outs that look alike come from different tables or passages of the source.

Where the note is “from CCOc1cc(O[C@H]2CN[C@H](C(=O)OC)C2)c2cc(C3CC3CC(C)(C)COC(=O)N[C@H](C(=O)O)C3CCCC3)c(OC)cc2n1, amide bond, HATU/DIEA, DCM, 7.1 mM, 18.0 h”, `CCOc1cc2c3cc(c(OC)cc3n1)[C@H]1C[C@@H]1CC(C)(C)COC(=O)N[C@@H](C1CCCC1)C(=O)N1C[C@@H](C[C@H]1C(=O)OC)O2` yielded a ring closure, yield of all isomers of 65.5%. For `COC(=O)[C@@H]1C[C@@H]2CN1C(=O)[C@H](C1CCCCC1)NC(=O)OCC(C)(C)C/C=C/c1cc3c(cc(=O)[nH]c3cc1OC)O2`, the ring closure, yield of all isomers (from C=CCC(C)(C)COC(=O)N[C@H](C(=O)N1C[C@H](Oc2cc(=O)[nH]c3cc(OC)c(C=C)cc23)C[C@H]1C(=O)OC)C1CCCCC1, rcm bond, Zhan 1B, DCM, 4.96 mM, 40.0 °C, 32.0 h) amounted to 99.5%.

`CCOc1cc2c3cc(c(OC)cc3n1)/C=C/C[C@@H]1CCC[C@H]1OC(=O)N[C@@H](C1CCCC1)C(=O)N1C[C@@H](C[C@H]1C(=O)OC)O2`: where the note is “from C=CC[C@@H]1CCC[C@H]1OC(=O)N[C@H](C(=O)N1C[C@H](Oc2cc(OCC)nc3cc(OC)c(C=C)cc23)C[C@H]1C(=O)OC)C1CCCC1, rcm bond, Zhan 1b, DCE, 8.78 mM, 70.0 °C, 21.0 h”, the ring closure, yield of all isomers was 90.9%.

Values taken from patent US8309540.
